Data reported in patent US11566007B2, “Ras inhibitors” (Revolution Medicines, Inc., priority 2019, dated 2023).

Assays:
Format in all cases: biochemical
[1] = molecular target: K-Ras G12C (Homo sapiens (Human), UniProt P01116+P62937, G12C); assay: Ras-Raf (BRAF RBD) disruption / FRET / MOA assay, KRAS G12C; conditions: KRAS G12C; Ras-Raf disruption/FRET/MOA assay; read-out: IC50* KRAS G12C FRET data
Summary of the method: (§1)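 Compounds, top final concentration 30 μM in 10-point 3-fold series, incubated 3 hours at 25° C with nucleotide-loaded Ras, cyclophilin A and BRAF RBD.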

[2] = molecular target: KRAS WT (Homo sapiens (Human), UniProt P01116+P62937); assay: Ras-Raf (BRAF RBD) disruption / FRET / MOA assay, KRAS WT; conditions: read-out: IC50* KRAS WT FRET data
Summary of the method: as §1

[3] = molecular target: NRAS Q61R (Homo sapiens (Human), UniProt P01111+P62937, Q61R); assay: Ras-Raf (BRAF RBD) disruption / FRET / MOA assay, NRAS Q61R; conditions: NRAS Q61R; Ras-Raf disruption/FRET/MOA assay; read-out: IC50* NRAS Q61R FRET data
Summary of the method: (§2)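 TR-FRET disruption of nucleotide-loaded Ras binding to BRAF RBD via compound-driven ternary complex with cyclophilin A. Compound as 10-point 3-fold series from 30 μM final, 3 h at 25° C, then anti-His Eu-W1024 (10 nM) and anti-GST allophycocyanin (50 nM) for 1.5 h. IC50 from decreased FRET ratio versus DMSO.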

[4] = molecular target: NRAS G12C (Homo sapiens (Human), UniProt P01111+P62937, G12C); assay: Ras-Raf (BRAF RBD) disruption / FRET / MOA assay, NRAS G12C; conditions: read-out: IC50* NRAS G12C FRET data
Summary of the method: as §1

[5] = molecular target: KRAS G13D (Homo sapiens (Human), UniProt P01116+P62937, G13D); assay: Ras-Raf (BRAF RBD) disruption / FRET / MOA assay, KRAS G13D; conditions: read-out: IC50* KRAS G13D FRET data
Summary of the method: as §1

[6] = molecular target: NRAS WT (Homo sapiens (Human), UniProt P01111+P62937); assay: Ras-Raf (BRAF RBD) disruption / FRET / MOA assay, NRAS WT; conditions: read-out: IC50* NRAS WT FRET data
Summary of the method: as §2

[7] = molecular target: K-Ras G13C (Homo sapiens (Human), UniProt P01116+P62937, G13C); assay: Ras-Raf (BRAF RBD) disruption / FRET / MOA assay, KRAS G13C; conditions: KRAS G13C; Ras-Raf disruption/FRET/MOA assay; read-out: IC50* KRAS G13C FRET data
Summary of the method: as §1

NRAS WT, sequence (P01111 whole entry): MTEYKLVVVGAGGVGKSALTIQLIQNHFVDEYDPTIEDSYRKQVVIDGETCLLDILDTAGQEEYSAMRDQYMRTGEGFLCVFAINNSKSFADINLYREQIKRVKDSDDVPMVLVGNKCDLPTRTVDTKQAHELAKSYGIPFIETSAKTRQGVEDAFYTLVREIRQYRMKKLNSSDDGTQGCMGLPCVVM
NRAS WT, sequence (P62937 whole entry): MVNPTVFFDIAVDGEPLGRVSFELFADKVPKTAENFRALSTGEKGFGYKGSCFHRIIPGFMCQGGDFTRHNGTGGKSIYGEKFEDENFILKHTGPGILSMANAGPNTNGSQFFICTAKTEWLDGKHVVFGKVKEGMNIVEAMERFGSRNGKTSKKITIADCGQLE
NRAS Q61R, sequence (P01111 whole entry Q61R): as the sequence (P01111 whole entry) above, with Q61R counted along it
NRAS Q61R, sequence (P62937 whole entry): as the sequence (P62937 whole entry) above
K-Ras G13C, sequence (P01116-2 other isoform, or with tags, fused parts or gaps G13C): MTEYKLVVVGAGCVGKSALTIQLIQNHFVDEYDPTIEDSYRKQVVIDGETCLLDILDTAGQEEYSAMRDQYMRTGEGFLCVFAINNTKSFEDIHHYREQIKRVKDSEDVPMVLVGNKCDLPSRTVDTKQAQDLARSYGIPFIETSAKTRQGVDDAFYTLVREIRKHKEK
K-Ras G13C, sequence (P62937 whole entry): as the sequence (P62937 whole entry) above
NRAS G12C, sequence (P01111 whole entry G12C): as the sequence (P01111 whole entry) above, with G12C counted along it
NRAS G12C, sequence (P62937 whole entry): as the sequence (P62937 whole entry) above
KRAS WT, sequence (P01116-2 other isoform, or with tags, fused parts or gaps): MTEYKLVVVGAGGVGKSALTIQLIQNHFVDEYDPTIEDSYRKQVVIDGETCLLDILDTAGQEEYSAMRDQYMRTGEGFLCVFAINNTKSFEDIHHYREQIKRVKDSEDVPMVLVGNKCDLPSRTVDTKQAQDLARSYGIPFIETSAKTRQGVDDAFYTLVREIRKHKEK
KRAS WT, sequence (P62937 whole entry): as the sequence (P62937 whole entry) above
KRAS G13D, sequence (P01116-2 other isoform, or with tags, fused parts or gaps G13D): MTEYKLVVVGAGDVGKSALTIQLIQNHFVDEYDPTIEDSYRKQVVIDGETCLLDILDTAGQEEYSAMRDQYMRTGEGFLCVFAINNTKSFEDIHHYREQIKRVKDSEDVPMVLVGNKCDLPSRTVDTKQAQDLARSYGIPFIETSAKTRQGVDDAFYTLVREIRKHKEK
KRAS G13D, sequence (P62937 whole entry): as the sequence (P62937 whole entry) above
K-Ras G12C, sequence (P01116-2 other isoform, or with tags, fused parts or gaps G12C): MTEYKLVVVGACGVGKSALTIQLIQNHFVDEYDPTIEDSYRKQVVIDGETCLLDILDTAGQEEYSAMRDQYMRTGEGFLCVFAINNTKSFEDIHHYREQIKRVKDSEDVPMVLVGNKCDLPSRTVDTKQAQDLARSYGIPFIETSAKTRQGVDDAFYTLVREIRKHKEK
K-Ras G12C, sequence (P62937 whole entry): as the sequence (P62937 whole entry) above

SMILES: CCn1c(-c2cccnc2[C@H](C)OC)c2c3cc(ccc31)-c1cccc(c1)CC(NC(=O)[C@H](C(C)C)N1CC[C@]3(CCN(C(=O)C#C[C@@H]4COCCN4C4COC4)C3)C1=O)C(=O)N1CCC[C@H](N1)C(=O)OCC(C)(C)C2 (stereo partly drawn) [Example A565]
- IC50 [1]: 100 to 1000 nM
- IC50 [2]: > 10000 nM
- IC50 [3]: > 10000 nM
- IC50 [4]: 100 to 1000 nM
- IC50 [5]: > 10000 nM
- IC50 [6]: > 10000 nM
- IC50 [7]: 1000 to 10000 nM

SMILES: C=CC(=O)N1CC[C@]2(CCN2C(=O)N(C)[C@H](C(=O)N[C@H]2Cc3nc(cs3)-c3ccc4c(c3)c(c(-c3cccnc3[C@H](C)OC)n4CC)CC(C)(C)COC(=O)[C@@H]3CCCN(N3)C2=O)C(C)C)C1 (atropisomer, axis not shown) [Example A662]
- IC50 [1]: 10 to 100 nM
- IC50 [2]: 100 to 1000 nM
- IC50 [3]: 100 to 1000 nM
- IC50 [4]: 10 to 100 nM
- IC50 [5]: 100 to 1000 nM
- IC50 [6]: 100 to 1000 nM
- IC50 [7]: 100 to 1000 nM

SMILES: C=CC(=O)N1CC[C@]2(C1)CN(C(=O)N(C)[C@H](C(=O)N[C@H]1Cc3nc(cs3)-c3ccc4c(c3)c(c(-c3cccnc3[C@H](C)OC)n4CC)CC(C)(C)COC(=O)[C@@H]3CCCN(N3)C1=O)C(C)C)CCO2 (atropisomer, axis not shown) [Example A354]
- IC50 [1]: 100 to 1000 nM
- IC50 [2]: 100 to 1000 nM
- IC50 [3]: 100 to 1000 nM
- IC50 [4]: 10 to 100 nM
- IC50 [5]: 100 to 1000 nM
- IC50 [6]: 100 to 1000 nM
- IC50 [7]: 100 to 1000 nM

SMILES: C=CC(=O)N1CC[C@H](C(=O)N(C)[C@H](C(=O)N[C@H]2Cc3cc(O)cc(c3)-c3ccc4c(c3)c(c(-c3cccc5c3COC5)n4CC)CC(C)(C)COC(=O)[C@@H]3CCCN(N3)C2=O)C(C)C)C1 [Example A227]
- IC50 [1]: 100 to 1000 nM
- IC50 [2]: 1000 to 10000 nM
- IC50 [3]: > 10000 nM
- IC50 [4]: 100 to 1000 nM
- IC50 [5]: > 10000 nM
- IC50 [6]: 1000 to 10000 nM
- IC50 [7]: 1000 to 10000 nM

SMILES: C=CC(=O)N1CC[C@]2(C1)OCN([C@H](C(=O)N[C@H]1Cc3cc(cc(C(F)F)c3)-c3ccc4c(c3)c(c(-c3cccnc3[C@H](C)OC)n4CC)CC(C)(C)COC(=O)[C@@H]3CCCN(N3)C1=O)C(C)C)C2=O (atropisomer, axis not shown) [Example A557]
- IC50 [1]: 100 to 1000 nM
- IC50 [2]: 100 to 1000 nM
- IC50 [3]: 1000 to 10000 nM
- IC50 [4]: 100 to 1000 nM
- IC50 [5]: 1000 to 10000 nM
- IC50 [6]: 100 to 1000 nM
- IC50 [7]: 100 to 1000 nM

SMILES: C=CC(=O)N1CCOC2(CCN(C(=O)N(C)[C@H](C(=O)N[C@H]3C[C@H]4CN(CCO4)c4ccc5c(c4)c(c(-c4cccnc4[C@H](C)OC)n5CC)CC(C)(C)COC(=O)[C@@H]4CCCN(N4)C3=O)C(C)C)CC2)C1 [Example A564]
- IC50 [1]: 100 to 1000 nM
- IC50 [2]: 100 to 1000 nM
- IC50 [3]: 1000 to 10000 nM
- IC50 [4]: 100 to 1000 nM
- IC50 [5]: 1000 to 10000 nM
- IC50 [6]: 100 to 1000 nM
- IC50 [7]: 10 to 100 nM

SMILES: C=CC(=O)N1CC[C@H](C(=O)N(C)[C@H](C(=O)N[C@H]2Cc3cccc(n3)-c3ccc4c(c3)c(c(-c3cccnc3[C@H](C)OC)n4CC)CC(C)(C)COC(=O)[C@@H]3CCCN(N3)C2=O)C(C)C)C1 (atropisomer, axis not shown) [Example A442]
- IC50 [1]: 100 to 1000 nM
- IC50 [2]: > 10000 nM
- IC50 [3]: 1000 to 10000 nM
- IC50 [4]: 100 to 1000 nM
- IC50 [5]: > 10000 nM
- IC50 [6]: > 10000 nM
- IC50 [7]: 1000 to 10000 nM

SMILES: CO[C@@H](C)c1ncccc1-c1c2c3cc(ccc3n1CC(F)(F)F)-c1csc(n1)C[C@H](NC(=O)CCOC1CN(C(=O)C#CC(C)(C)N3CCC3)C1)C(=O)N1CCC[C@H](N1)C(=O)OCC(C)(C)C2 (atropisomer, axis not shown) [Example A363]
- IC50 [1]: 10 to 100 nM
- IC50 [2]: 1000 to 10000 nM
- IC50 [3]: 1000 to 10000 nM
- IC50 [4]: 10 to 100 nM
- IC50 [5]: 1000 to 10000 nM
- IC50 [6]: 1000 to 10000 nM
- IC50 [7]: 1000 to 10000 nM

SMILES: C=CC(=O)N1CC[C@@H]2[C@H](C1)CN2C(=O)N(C)[C@H](C(=O)N[C@H]1Cc2nc(cs2)-c2ccc3c(c2)c(c(-c2cccnc2[C@H](C)OC)n3CC)CC(C)(C)COC(=O)[C@@H]2CCCN(N2)C1=O)C(C)C (atropisomer, axis not shown) [Example A688]
- IC50 [1]: 100 to 1000 nM
- IC50 [2]: 100 to 1000 nM
- IC50 [3]: 100 to 1000 nM
- IC50 [4]: 100 to 1000 nM
- IC50 [5]: 1000 to 10000 nM
- IC50 [6]: 100 to 1000 nM
- IC50 [7]: 100 to 1000 nM

SMILES: C=CC(=O)N1CC[C@H](C(=O)N(C)[C@H](C(=O)N[C@H]2Cc3cc(ccn3)-c3ccc4c(c3)c(c(-c3cccnc3COC)n4CC)CC(C)(C)COC(=O)[C@@H]3CCCN(N3)C2=O)C(C)C)C1 [Example A136]
- IC50 [1]: 1000 to 10000 nM
- IC50 [2]: > 10000 nM
- IC50 [3]: > 10000 nM
- IC50 [4]: 1000 to 10000 nM
- IC50 [5]: > 10000 nM
- IC50 [6]: > 10000 nM
- IC50 [7]: > 10000 nM

SMILES: CCn1c(-c2cccnc2[C@H](C)OC)c2c3cc(ccc31)-c1csc(n1)C[C@H](NC(=O)[C@H](C(C)C)N(C)C(=O)N1CCC13CN(C(=O)/C=C/CN(C)C)C3)C(=O)N1CCC[C@H](N1)C(=O)OCC(C)(C)C2 (atropisomer, axis not shown) [Example A598]
- IC50 [1]: 10 to 100 nM
- IC50 [2]: 10 to 100 nM
- IC50 [3]: 10 to 100 nM
- IC50 [4]: 10 to 100 nM
- IC50 [5]: 100 to 1000 nM
- IC50 [6]: 10 to 100 nM
- IC50 [7]: 100 to 1000 nM

SMILES: C=CC(=O)N(C)[C@@H]1C[C@H](C)N(C(=O)N(C)[C@H](C(=O)N[C@H]2Cc3nc(cs3)-c3ccc4c(c3)c(c(-c3cccnc3[C@H](C)OC)n4CC)CC(C)(C)COC(=O)[C@@H]3CCCN(N3)C2=O)C(C)C)C1 (atropisomer, axis not shown) [Example A633]
- IC50 [1]: 100 to 1000 nM
- IC50 [2]: 10 to 100 nM
- IC50 [3]: 10 to 100 nM
- IC50 [4]: 10 to 100 nM
- IC50 [5]: 100 to 1000 nM
- IC50 [6]: 10 to 100 nM
- IC50 [7]: 100 to 1000 nM

SMILES: C=CC(=O)N1CCOC2(CCN(C(=O)N(C)[C@H](C(=O)N[C@H]3Cc4cccc(n4)-c4ccc5c(c4)c(c(-c4cccnc4[C@H](C)OC)n5CC(F)(F)F)CC(C)(C)COC(=O)[C@@H]4CCCN(N4)C3=O)C(C)C)CC2)C1 (atropisomer, axis not shown) [Example A607, 4-acryloyl-N-((2S)-1-(((6^3S,4S)-1^2-(2-((S)-1-methoxyethyl)pyridin-3-yl)-10,10-dimethyl-5,7-dioxo-1^1-(2,2,2-trifluoroethyl)-6^1,6^2,6^3,6^4,6^5,6^6-hexahydro-1^1H-8-oxa-1(5,3)-indola-6(1,3)-pyridazina-2(2,6)-pyridinacycloundecaphane-4-yl)amino)-3-methyl-1-oxobutan-2-yl)-N-methyl-1-oxa-4,9-diazaspiro[5.5]undecane-9-carboxamide]
- IC50 [1]: 100 to 1000 nM
- IC50 [2]: 100 to 1000 nM
- IC50 [3]: 100 to 1000 nM
- IC50 [4]: 100 to 1000 nM
- IC50 [5]: 1000 to 10000 nM
- IC50 [6]: 100 to 1000 nM
- IC50 [7]: 10 to 100 nM

SMILES: C=CC(=O)N1CC(OC[C@H](C(=O)N[C@H]2C[C@H]3CN(CCO3)c3ccc4c(c3)c(c(-c3cccnc3[C@H](C)OC)n4CC(F)(F)F)CC(C)(C)COC(=O)[C@@H]3CCCN(N3)C2=O)C(C)C)C1 (atropisomer, axis not shown) [Example A723]
- IC50 [1]: 100 to 1000 nM
- IC50 [2]: 1000 to 10000 nM
- IC50 [3]: > 10000 nM
- IC50 [4]: 100 to 1000 nM
- IC50 [5]: > 10000 nM
- IC50 [6]: 1000 to 10000 nM
- IC50 [7]: 1000 to 10000 nM

SMILES: C=CC(=O)N1CC2(CCN(C(=O)N(C)[C@H](C(=O)N[C@H]3Cc4cccc(c4)-c4ccc5c(c4)c(c(-c4cccnc4[C@H](C)OC)n5CC)CC(C)(C)COC(=O)[C@@H]4CCCN(N4)C3=O)C(C)C)CC2)C1 (atropisomer, axis not shown) [Example A680]
- IC50 [1]: 100 to 1000 nM
- IC50 [2]: 100 to 1000 nM
- IC50 [3]: 100 to 1000 nM
- IC50 [4]: 100 to 1000 nM
- IC50 [5]: 1000 to 10000 nM
- IC50 [6]: 100 to 1000 nM
- IC50 [7]: 10 to 100 nM
